Experimental data: patent publication US11078228B2, “Ectonucleotidase inhibitors and methods of use thereof” (Calithera Biosciences, Inc., priority 2018, dated 2021)

Assays:
recombinant CD73 [1] = target: T1, recombinant CD73 (Homo sapiens (Human), UniProt P21589); experiment: Assay 1: Inhibition of the CD73 enzyme in vitro (0.5 nM CD73, 30 min room temperature, Malachite Green); assay type: biochemical; conditions: 0.5 nM CD73, 30 minutes at room temperature
Method: For measurements of soluble CD73 enzyme activity, recombinant CD73 was obtained from R&D Systems, Cat. No. 5795-EN-010. […] Reactions were allowed to proceed for 30 minutes at room temperature before the addition of 100 μL Malachite Green (Cell Signaling Technology, Cat. No. 12776). After 5 minutes at room temperature, absorbance at 630 nm was determined on a microplate spectrophotometer. The concentration of inorganic phosphate was determined using a phosphate standard curve.

recombinant CD73 [2] = target: T1, recombinant CD73; experiment: Assay 2: Inhibition of the CD73 enzyme in vitro (0.05 nM CD73, 1 hour 37° C., Malachite Green); assay type: biochemical; conditions: 0.05 nM CD73, 50 μM AMP, 1 hour at 37° C.
How it was run: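 Soluble recombinant CD73 reactions ran 1 hour at 37° C. Malachite Green was then added, and absorbance at 630 nm was read after 5 min at room temperature. Inorganic phosphate was quantified from a phosphate standard curve.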

T1 sequence (P21589 27-547): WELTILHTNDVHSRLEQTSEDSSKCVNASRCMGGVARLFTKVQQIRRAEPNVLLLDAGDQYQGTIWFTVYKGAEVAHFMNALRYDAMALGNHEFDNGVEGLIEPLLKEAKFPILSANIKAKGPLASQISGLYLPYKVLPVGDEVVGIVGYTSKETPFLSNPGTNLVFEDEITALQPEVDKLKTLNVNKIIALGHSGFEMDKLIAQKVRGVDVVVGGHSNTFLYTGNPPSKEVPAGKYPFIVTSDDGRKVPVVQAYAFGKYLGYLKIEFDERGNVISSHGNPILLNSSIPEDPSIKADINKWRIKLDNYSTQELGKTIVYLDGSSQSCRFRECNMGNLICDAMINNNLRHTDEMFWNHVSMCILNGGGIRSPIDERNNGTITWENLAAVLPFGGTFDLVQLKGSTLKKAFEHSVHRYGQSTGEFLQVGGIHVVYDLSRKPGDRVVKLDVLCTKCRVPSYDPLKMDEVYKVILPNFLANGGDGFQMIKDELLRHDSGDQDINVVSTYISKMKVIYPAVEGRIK

| IC50 (recombinant CD73 [1]) [nM] | IC50 (recombinant CD73 [2]) [nM] | SMILES |
| --- | --- | --- |
| 9 | – | C#C[C@@]1(O)[C@@H](CO[C@](Cc2ccccc2)(C(=O)O)c2cscn2)O[C@@H](n2cnc3c(N)nc(Cl)nc32)[C@@H]1O (single isomer, unassigned) [Example 180] |
| 21 | – | C#C[C@@]1(O)[C@@H](CO[C@@](Cc2ccccc2)(C(=O)O)c2cscn2)O[C@@H](n2cnc3c(N)nc(Cl)nc32)[C@@H]1O (single isomer, unassigned) [Example 181] |
| 11700 | – | C#C[C@@]1(O)[C@@H](COC(C(=O)NO)c2cscn2)O[C@@H](n2cnc3c(N)nc(Cl)nc32)[C@@H]1O (single isomer, unassigned) [Example 185] |
| 8830 | – | C#C[C@@]1(O)[C@@H](COC(C(=O)NO)c2cscn2)O[C@@H](n2cnc3c(N)nc(Cl)nc32)[C@@H]1O (single isomer, unassigned) [Example 186] |
| 1850 | – | C#C[C@@]1(O)[C@@H](CO[C@](C#N)(Cc2ccccc2)C(=O)O)O[C@@H](n2cnc3c(N)nc(Cl)nc32)[C@@H]1O (single isomer, unassigned) [Example 189] |
| 9320 | – | C#C[C@@]1(O)[C@@H](CO[C@@](C#N)(Cc2ccccc2)C(=O)O)O[C@@H](n2cnc3c(N)nc(Cl)nc32)[C@@H]1O (single isomer, unassigned) [Example 190] |
| 263 | – | C#C[C@@]1(O)[C@@H](CO[C@H](C(=O)O)c2csc(-c3ccccc3)n2)O[C@@H](n2cnc3c(N)nc(Cl)nc32)[C@@H]1O (single isomer, unassigned) [Example 193] |
| 336 | – | C#C[C@@]1(O)[C@@H](CO[C@@H](C(=O)O)c2csc(-c3ccccc3)n2)O[C@@H](n2cnc3c(N)nc(Cl)nc32)[C@@H]1O (single isomer, unassigned) [Example 194] |
| 2270 | – | C[C@@]1(O)[C@@H](CO[C@](Cc2ccc(-c3ccccc3)cc2)(C(=O)O)c2cscn2)O[C@@H](n2cnc3c(N)nc(Cl)nc32)[C@@H]1O (single isomer, unassigned) [Example 198] |
| 5760 | – | C[C@@]1(O)[C@@H](CO[C@@](Cc2ccc(-c3ccccc3)cc2)(C(=O)O)c2cscn2)O[C@@H](n2cnc3c(N)nc(Cl)nc32)[C@@H]1O (single isomer, unassigned) [Example 199] |
| 5 | – | C#C[C@@]1(O)[C@@H](COC(Cc2cccc(OC(F)(F)F)c2)(C(=O)O)C(=O)O)O[C@@H](n2cnc3c(N)nc(Cl)nc32)[C@@H]1O [Example 23, 2-(((2R,3S,4R,5R)-5-(6-amino-2-chloro-9H-purin-9-yl)-3-ethynyl-3,4-dihydroxytetrahydrofuran-2-yl)methoxy)-2-(3-(trifluoromethoxy)benzyl)malonic acid] |
| 1.8 | – | C#C[C@@]1(O)[C@@H](COC(Cc2ccsc2)(C(=O)O)C(=O)O)O[C@@H](n2cnc3c(N)nc(Cl)nc32)[C@@H]1O [Example 24, 2-(((2R,3S,4R,5R)-5-(6-amino-2-chloro-9H-purin-9-yl)-3-ethynyl-3,4-dihydroxytetrahydrofuran-2-yl)methoxy)-2-(thiophen-3-ylmethyl)malonic acid] |
| 7 | – | C#CCC(OC[C@H]1O[C@@H](n2cnc3c(N)nc(Cl)nc32)[C@H](O)[C@@]1(O)C#C)(C(=O)O)C(=O)O [Example 25, 2-(((2R,3S,4R,5R)-5-(6-amino-2-chloro-9H-purin-9-yl)-3-ethynyl-3,4-dihydroxytetrahydrofuran-2-yl)methoxy)-2-(prop-2-yn-1-yl)malonic acid] |
| 58 | – | C#C[C@@]1(O)[C@@H](COC(C(=O)O)C(=O)O)O[C@@H](n2cnc3c(N)nc(Cl)nc32)[C@@H]1O [Example 26, 2-(((2R,3S,4R,5R)-5-(6-amino-2-chloro-9H-purin-9-yl)-3-ethynyl-3,4-dihydroxytetrahydrofuran-2-yl)methoxy)malonic acid] |
| 18 | – | Nc1nc(Cl)nc2c1ncn2[C@@H]1O[C@H](COC(C(=O)O)C(=O)O)[C@](O)(C#Cc2cc[nH]n2)[C@H]1O [Example 27, 2-(((2R,3S,4R,5R)-3-((1H-pyrazol-3-yl)ethynyl)-5-(6-amino-2-chloro-9H-purin-9-yl)-3,4-dihydroxytetrahydrofuran-2-yl)methoxy)malonic acid] |
| 3 | – | Nc1nc(Cl)nc2c1ncn2[C@@H]1O[C@H](COC(C(=O)O)C(=O)O)[C@](O)(C#Cc2ccn(Cc3ccccc3)n2)[C@H]1O [Example 28, 2-(((2R,3S,4R,5R)-5-(6-amino-2-chloro-9H-purin-9-yl)-3-((1-benzyl-1H-pyrazol-3-yl)ethynyl)-3,4-dihydroxytetrahydrofuran-2-yl)methoxy)malonic acid] |
| 2 | – | Nc1nc(Cl)nc2c1ncn2[C@@H]1O[C@H](COC(C(=O)O)C(=O)O)[C@](O)(C#Cc2ccnn2Cc2ccccc2)[C@H]1O [Example 29, 2-(((2R,3S,4R,5R)-5-(6-amino-2-chloro-9H-purin-9-yl)-3-((1-benzyl-1H-pyrazol-5-yl)ethynyl)-3,4-dihydroxytetrahydrofuran-2-yl)methoxy)malonic acid] |
| 273 | – | C#C[C@@]1(O)[C@@H](COC(Cc2cccc(C(F)(F)F)c2)(C(=O)O)C(=O)OCC)O[C@@H](n2cnc3c(N)nc(Cl)nc32)[C@@H]1O (stereo partly drawn) [Example 49, 2-(((2R,3S,4R,5R)-5-(6-amino-2-chloro-9H-purin-9-yl)-3-ethynyl-3,4-dihydroxytetrahydrofuran-2-yl)methoxy)-3-ethoxy-3-oxo-2-(3-(trifluoromethyl)-benzyl)propanoic acid] |
| 3 | – | C#C[C@@]1(O)[C@@H](COC(Cc2cccc(C(F)(F)F)c2)(C(=O)O)C(=O)O)O[C@@H](n2cnc3c(N)nc(Cl)nc32)[C@@H]1O [Example 50, 2-(((2R,3S,4R,5R)-5-(6-amino-2-chloro-9H-purin-9-yl)-3-ethynyl-3,4-dihydroxytetrahydrofuran-2-yl)methoxy)-2-(3-(trifluoromethyl)benzyl)malonic acid] |
| 3 | – | C#C[C@@]1(O)[C@@H](COC(Cc2cccc(Cl)c2)(C(=O)O)C(=O)O)O[C@@H](n2cnc3c(N)nc(Cl)nc32)[C@@H]1O [Example 51, 2-(((2R,3S,4R,5R)-5-(6-amino-2-chloro-9H-purin-9-yl)-3-ethynyl-3,4-dihydroxytetrahydrofuran-2-yl)methoxy)-2-(3-chlorobenzyl)malonic acid] |
| – | 0.42 | C#C[C@@]1(O)[C@@H](COC(Cc2ccc(-c3cccn(C)c3=O)cc2)(C(=O)O)C(=O)O)O[C@@H](n2cnc3c(N)nc(Cl)nc32)[C@@H]1O [Example 162, 2-(((2R,3S,4R,5R)-5-(6-amino-2-chloro-9H-purin-9-yl)-3-ethynyl-3,4-dihydroxytetrahydrofuran-2-yl)methoxy)-2-(4-(1-methyl-2-oxo-1,2-dihydropyridin-3-yl)benzyl)malonic acid] |
| – | > 100 | C#C[C@@]1(O)[C@@H](COC(Cc2ccccc2)(C(=O)O)C(=O)O)O[C@@H](n2cnc3c(CCCC(=O)O)nc(Cl)nc32)[C@@H]1O [Example 163, 2-benzyl-2-(((2R,3S,4R,5R)-5-(6-(3-carboxypropyl)-2-chloro-9H-purin-9-yl)-3-ethynyl-3,4-dihydroxytetrahydrofuran-2-yl)methoxy)malonic acid] |
| – | 14 | C#C[C@@]1(O)[C@@H](COC(Cc2ccccc2)(C(=O)O)C(=O)O)O[C@@H](n2cnc3c(NO)nc(Cl)nc32)[C@@H]1O [Example 168, 2-benzyl-2-(((2R,3S,4R,5R)-5-(2-chloro-6-(hydroxyamino)-9H-purin-9-yl)-3-ethynyl-3,4-dihydroxytetrahydrofuran-2-yl)methoxy)malonic acid] |
| – | 162 | C#C[C@@]1(O)[C@@H](COC(Cc2ccsc2)(C(=O)O)c2cscn2)O[C@@H](n2cnc3c(NC(C)C)nc(Cl)nc32)[C@@H]1O (stereo partly drawn) [Example 169, 2-(((2R,3S,4R,5R)-5-(2-chloro-6-(isopropylamino)-9H-purin-9-yl)-3-ethynyl-3,4-dihydroxytetrahydrofuran-2-yl)methoxy)-2-(thiazol-4-yl)-3-(thiophen-3-yl)propanoic acid] |
| – | 17 | C#C[C@@]1(O)[C@@H](COC(Cc2ccc(OC(F)(F)F)cc2)(C(=O)O)c2cscn2)O[C@@H](n2cnc3c(NC(C)C)nc(Cl)nc32)[C@@H]1O (stereo partly drawn) [Example 174, 2-(((2R,3S,4R,5R)-5-(2-chloro-6-(isopropylamino)-9H-purin-9-yl)-3-ethynyl-3,4-dihydroxytetrahydrofuran-2-yl)methoxy)-2-(thiazol-4-yl)-3-(4-(trifluoromethoxy)phenyl)propanoic acid] |
| – | 1 | C#C[C@@]1(O)[C@@H](COC(Cc2ccc(N3CCCNC3=O)cc2)(C(=O)O)c2cscn2)O[C@@H](n2cnc3c(N)nc(Cl)nc32)[C@@H]1O (stereo partly drawn) [Example 175, 2-(((2R,3S,4R,5R)-5-(6-amino-2-chloro-9H-purin-9-yl)-3-ethynyl-3,4-dihydroxytetrahydrofuran-2-yl)methoxy)-3-(4-(2-oxotetrahydropyrimidin-1 (2H)-yl)phenyl)-2-(thiazol-4-yl)propanoic acid] |
| – | 5 | C#C[C@@]1(O)[C@@H](COC(Cc2ccc(N3CCCNC3=O)cc2)(C(=O)O)c2cscn2)O[C@@H](n2cnc3c(NC(C)C)nc(Cl)nc32)[C@@H]1O (stereo partly drawn) [Example 176, 2-(((2R,3S,4R,5R)-5-(2-chloro-6-(isopropylamino)-9H-purin-9-yl)-3-ethynyl-3,4-dihydroxytetrahydrofuran-2-yl)methoxy)-3-(4-(2-oxotetrahydropyrimidin-1(2H)-yl)phenyl)-2-(thiazol-4-yl)propanoic acid] |
| – | 0.73 | C#C[C@@]1(O)[C@@H](COC(Cc2ccc(-c3cccnc3N)cc2)(C(=O)O)C(=O)O)O[C@@H](n2cnc3c(N)nc(Cl)nc32)[C@@H]1O [Example 197, 2-(((2R,3S,4R, 5R)-5-(6-amino-2-chloro-9H-purin-9-yl)-3-ethynyl-3,4-dihydroxytetrahydrofuran-2-yl)methoxy)-2-(4-(2-aminopyridin-3-yl)benzyl)malonic acid] |
